Holding throughout (experiment): ≥ marks a high value that may be exact or a test limit, other limits are often not marked, values filed in µg/mL are converted to µM
The subject of assay [1] is Candida albicans NCYC 1467.
The subject of assay [2] is Staphylococcus aureus NCTC 10788.
Assay [3] has as its system Escherichia coli NCTC 10418.
The subject of assay [4] is Staphylococcus aureus ATCC 29213.
For assay [5], the system named is Escherichia coli UB1005.
The test system of assay [6] is Salmonella enterica subsp. enterica serovar Typhimurium C77-31.
Assay [7] concerns Staphylococcus epidermidis ATCC 12228.
For assay [8], the system named is Staphylococcus aureus ATCC 43300.
Assay [9] relates to Enterococcus faecalis ATCC 29212.
Assay [10] deals with Bacillus subtilis CMCC 63501.
Assay [11] concerns Escherichia coli ATCC 25922.
The subject of assay [12] is Pseudomonas aeruginosa ATCC 27853.
The subject of assay [13] is Salmonella enterica subsp. enterica serovar Pullorum C79-13.
The test system of assay [14] is Cryptococcus neoformans ATCC 28957.
Assay [15] relates to Bacillus subtilis ATCC 23857.
Assay [16] relates to Candida albicans ATCC 90028.
In assay [17] the test system is Mycobacterium tuberculosis H37Rv.
For assay [18], the system named is Salmonella enterica subsp. enterica serovar Typhimurium ATCC 14028.
The subject of assay [19] is Staphylococcus aureus.
Assay [20] concerns Staphylococcus aureus NCTC 12493.
The subject of assay [21] is Pseudomonas aeruginosa.
Assay [22] relates to Salmonella enterica subsp. enterica serovar Typhimurium ATCC 14028s.
The test system of assay [23] is Burkholderia cepacia ATCC 25416.
The test system of assay [24] is Pseudomonas aeruginosa H744.
Assay [25] has as its system Pseudomonas aeruginosa H547.
Assay [26] has as its system Pseudomonas aeruginosa K799.
Assay [27] deals with Pseudomonas aeruginosa Z61.

The structures appear in SMILES notation. Values after ≈ are worked out from the molar mass of the structure shown.

As for `CC[C@H](C)[C@H](NC(=O)[C@H](CCCCN)NC(=O)[C@H](CCCCN)NC(=O)[C@H](Cc1c[nH]c2ccccc12)NC(=O)[C@H](CC(C)C)NC(=O)[C@H](C)N)C(=O)N[C@@H](CC(C)C)C(=O)N[C@@H](CCCCN)C(=O)N[C@@H](CC(N)=O)C(=O)N[C@@H](C)C(=O)NCC(=O)N[C@@H](CCCCN)C(=O)N[C@@H](C)C(=O)N[C@@H](C)C(=O)N[C@@H](CC(C)C)C(=O)N[C@@H](CC(N)=O)C(=O)N[C@@H](CCCCN)C(=O)N[C@H](C(=O)N[C@@H](CC(N)=O)C(=O)N[C@@H](CCC(N)=O)C(=O)N[C@H](C(=O)N[C@H](C(=O)N[C@@H](CCC(N)=O)C(N)=O)C(C)C)[C@@H](C)CC)[C@@H](C)CC` [ALWKKILKNAGKAALNKINQIVQ], the minimum inhibitory concentration (MIC) in assay [1] came out at 4 µM (≈ 10.2 µg/mL); in assay [2], 8 µM (≈ 20.5 µg/mL); in assay [3], 8 µM (≈ 20.5 µg/mL).
As for `CC[C@H](C)[C@H](NC(=O)[C@H](CCCN=C(N)N)NC(=O)[C@H](CCCCN)NC(=O)[C@H](Cc1ccccc1)NC(=O)[C@H](CCC(=O)O)NC(=O)[C@H](CCCCN)NC(=O)CN)C(=O)N[C@H](C(=O)N[C@@H](Cc1c[nH]c2ccccc12)C(=O)N[C@@H](CC(C)C)C(=O)N[C@@H](CO)C(=O)N[C@@H](CCCCN)C(=O)N[C@H](C(=O)N[C@@H](C)C(=O)N[C@@H](CCCCN)C(=O)N[C@@H](CCCCN)C(=O)N[C@@H](CC(C)C)C(N)=O)[C@@H](C)O)C(C)C` [GKEFKRIVWLSKTAKKL], the MIC was > 128 µM in assay [4]; ≥ 128 µM in assay [5]; ≥ 128 µM in [6]; > 128 µM in assay [7]; > 128 µM in [8]; > 128 µM in assay [9]. In addition, the MIC was ≥ 128 µM in [10], 32 µM (≈ 65 µg/mL) in [11], > 128 µM in [12] and 16 µM (≈ 32.5 µg/mL) in [13].
Turning to `CC[C@H](C)[C@H](N)C(=O)N[C@H](C(=O)N[C@@H](CC(N)=O)C(=O)N[C@@H](Cc1cnc[nH]1)C(=O)N[C@@H](CC(C)C)C(=O)N[C@H](C(=O)N[C@@H](CCCCN)C(=O)N[C@@H](CC(C)C)C(=O)N[C@@H](Cc1ccccc1)C(=O)N[C@@H](CC(=O)O)C(=O)N[C@@H](CCCCN)C(=O)NCC(=O)N[C@@H](CC(C)C)C(=O)N[C@@H](CC(N)=O)C(=O)N[C@@H](CO)C(=O)N[C@H](C(=O)N[C@H](C(=O)N[C@@H](CC(N)=O)C(=O)N[C@@H](CC(C)C)C(=O)N[C@@H](CCCN=C(N)N)C(N)=O)C(C)C)[C@@H](C)CC)C(C)C)C(C)C` [IVNHLVKLFDKGLNSIVNLR], the MIC is ≥ 128 µM in assay [14], ≥ 64 µM in assay [15] and ≥ 128 µM in assay [16].
In the case of `CSCC[C@H](NC(=O)[C@H](CCC(=O)O)NC(=O)[C@H](CCCN=C(N)N)NC(=O)[C@@H](N)CCCCN)C(=O)N[C@@H](CCCCN)C(=O)N[C@@H](CCCN=C(N)N)C(=O)N1CCC[C@H]1C(=O)NCC(=O)N[C@@H](CCCCN)C(=O)NCC(=O)N[C@@H](CC(N)=O)C(=O)N[C@@H](CCCN=C(N)N)C(=O)N[C@@H](CC(N)=O)C(=O)N[C@@H](CC(N)=O)C(=O)N[C@@H](Cc1c[nH]c2ccccc12)C(=O)N[C@@H](CCCCN)C(=O)N[C@@H](CCCCN)C(=O)N[C@@H](CCC(=O)O)C(=O)N[C@@H](Cc1ccc(O)cc1)C(=O)O` [KREMKRPGKGNRNNWKKEY], in assay [17], the MIC is ≥ 82.7 µM.
With `C[C@H](NC(=O)[C@H](C)NC(=O)[C@H](CCCCN)NC(=O)[C@H](C)NC(=O)[C@H](C)NC(=O)[C@H](C)NC(=O)[C@H](CCCCN)NC(=O)[C@H](Cc1c[nH]c2ccccc12)NC(=O)[C@@H](N)Cc1c[nH]c2ccccc12)C(=O)N[C@@H](C)C(=O)N[C@@H](CCCCN)C(=O)N[C@@H](Cc1c[nH]c2ccccc12)C(=O)N[C@@H](Cc1c[nH]c2ccccc12)C(N)=O` [WWKAAAKAAAKWW], the MIC in assay [4] was found to be 4 µM (≈ 6.29 µg/mL); in assay [5], 4 µM (≈ 6.29 µg/mL); in assay [7], 4 µM (≈ 6.29 µg/mL); in assay [9], 4 µM (≈ 6.29 µg/mL); in assay [10], 4 µM (≈ 6.29 µg/mL); in [18] it was 8 µM (≈ 12.6 µg/mL). Also, the figures for the MIC in assay [11], in assay [12] and in [13] were 2 µM (≈ 3.15 µg/mL), 8 µM (≈ 12.6 µg/mL) and 2 µM (≈ 3.15 µg/mL), respectively.
As for `CC[C@H](C)[C@@H]1NC(=O)[C@@H](NC(=O)[C@H](Cc2ccccc2)NC(=O)[C@H](C)NC(=O)[C@H](CCCCN)NC(=O)[C@H](CCCCN)NC(=O)[C@H](CC(C)C)NC(=O)[C@H](CC(C)C)NC(=O)[C@H](Cc2ccccc2)NC(=O)[C@@H](NC(=O)[C@H](CO)NC(=O)[C@@H]2CCCN2C(=O)[C@@H](NC(=O)[C@@H](NC(=O)[C@@H](N)Cc2ccccc2)[C@@H](C)CC)C(C)C)[C@@H](C)CC)CSSC[C@@H](C(=O)O)NC(=O)[C@H](CCCCN)NC(=O)[C@H](CCCCN)NC(=O)[C@H](CC(C)C)NC(=O)[C@H](C)NC1=O` [FIVPSIFLLKKAFCIALKKC], the MIC was 8 µM (≈ 18.2 µg/mL) in assay [19]; 4 µM (≈ 9.12 µg/mL) in [1]; 4 µM (≈ 9.12 µg/mL) in assay [20]; > 512 µM in assay [21]; > 512 µM in assay [12]; 4 µM (≈ 9.12 µg/mL) in assay [2]. This compound also showed an MIC in [3] of 16 µM (≈ 36.5 µg/mL).
With `CC[C@H](C)[C@H](NC(=O)CNC(=O)[C@@H](NC(=O)[C@H](CCCCN)NC(=O)[C@H](CCCCN)NC(=O)[C@H](Cc1ccccc1)NC(=O)[C@H](CC(C)C)NC(=O)[C@@H](N)CCCCN)[C@@H](C)CC)C(=O)NCC(=O)N[C@@H](C)C(=O)N[C@H](C(=O)N[C@@H](CC(C)C)C(=O)N[C@@H](CCCCN)C(=O)N[C@H](C(=O)N[C@@H](CC(C)C)C(=O)N[C@H](C(=O)N[C@H](C(=O)NCC(=O)N[C@@H](CC(C)C)C(=O)N1CCC[C@H]1C(=O)N[C@@H](C)C(=O)N[C@@H](CC(C)C)C(=O)N[C@@H](CCCCN)C(=O)N[C@@H](CC(C)C)C(=O)N[C@H](C(=O)N[C@@H](CC(C)C)C(=O)N[C@@H](CCCCN)C(=O)O)[C@@H](C)O)[C@@H](C)O)[C@@H](C)O)C(C)C)C(C)C` [KLFKKIGIGAVLKVLTTGLPALKLTLK], the MIC in assay [5] was 1.75 µM (≈ 5 µg/mL); in assay [22], 10.1 µM (≈ 29 µg/mL); in assay [23], 22.3 µM (≈ 64 µg/mL); in [24], 1.4 µM (≈ 4 µg/mL); in [25], 11.2 µM (≈ 32 µg/mL); in [26], 11.2 µM (≈ 32 µg/mL). In [27], the MIC worked out at 6.63 µM (≈ 19 µg/mL).
Consider `CC[C@H](C)[C@H](NC(=O)[C@H](CC(C)C)NC(=O)[C@H](C)NC(=O)[C@H](CC(C)C)NC(=O)[C@@H]1CCCN1C(=O)[C@H](CCCCN)NC(=O)[C@H](C)NC(=O)[C@@H](NC(=O)[C@@H](NC(=O)[C@@H](NC(=O)[C@@H](NC(=O)[C@H](CCCCN)NC(=O)[C@H](CCCCN)NC(=O)[C@H](C)NC(=O)[C@H](C)NC(=O)[C@H](CO)NC(=O)[C@@H](NC(=O)[C@H](CC(C)C)NC(=O)[C@H](CCCCN)NC(=O)[C@H](CCCCN)NC(=O)[C@@H](NC(=O)[C@H](Cc1ccccc1)NC(=O)[C@H](CO)NC(=O)[C@H](CCCCN)NC(=O)[C@H](Cc1c[nH]c2ccccc12)NC(=O)[C@@H](N)CCCCN)[C@@H](C)CC)[C@@H](C)O)C(C)C)C(C)C)[C@@H](C)O)[C@@H](C)O)C(=O)N[C@@H](CO)C(=O)O` [KWKSFIKKLTSAAKKVVTTAKPLALIS], for which the MIC was determined as 0.676 µM (≈ 2 µg/mL) in assay [5]; 1.69 µM (≈ 5 µg/mL) in [22]; 21.6 µM (≈ 64 µg/mL) in assay [23]; 0.676 µM (≈ 2 µg/mL) in [24]; 5.41 µM (≈ 16 µg/mL) in assay [25]; 1.35 µM (≈ 4 µg/mL) in assay [26]. In assay [27], this compound yielded an MIC of 1.35 µM (≈ 4 µg/mL).

(Values after DBAASP.)
